#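 Test compounds were applied to cells in 96-well plates for 48 hours at 5 doses. GI50 marks 50% less growth. TGI is the concentration that stops growth completely.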
# What was measured:
# Test in all cases: DTP human tumour cell line panel, 48 h
# MDA-MB-468 breast = test system: MDA-MB-468 breast
# SF-539 CNS = test system: SF-539 CNS
# SF-295 CNS = test system: SF-295 CNS
# SNB-19 CNS = test system: SNB-19 CNS
# DU-145 prostate = test system: DU-145 prostate
# SR leukemia = test system: SR leukemia
# HT29 colon = test system: HT29 colon
# UO-31 renal = test system: UO-31 renal
# SK-MEL-28 melanoma = test system: SK-MEL-28 melanoma
# NCI/ADR-RES ovarian = test system: NCI/ADR-RES ovarian
# CAKI-1 renal = test system: CAKI-1 renal
# SK-MEL-5 melanoma = test system: SK-MEL-5 melanoma
# ACHN renal = test system: ACHN renal
# HL-60(TB) leukemia = test system: HL-60(TB) leukemia
# T-47D breast = test system: T-47D breast
# IGROV1 ovarian = test system: IGROV1 ovarian
# U251 CNS = test system: U251 CNS
# LOX IMVI melanoma = test system: LOX IMVI melanoma
# KM12 colon = test system: KM12 colon
# NCI-H522 lung = test system: NCI-H522 lung
# NCI-H460 lung = test system: NCI-H460 lung
# SK-MEL-2 melanoma = test system: SK-MEL-2 melanoma
# MCF7 breast = test system: MCF7 breast
# SK-OV-3 ovarian = test system: SK-OV-3 ovarian
# A498 renal = test system: A498 renal
# RPMI-8226 leukemia = test system: RPMI-8226 leukemia
# PC-3 prostate = test system: PC-3 prostate
# 786-0 renal = test system: 786-0 renal
# HCT-15 colon = test system: HCT-15 colon
# UACC-62 melanoma = test system: UACC-62 melanoma
# SF-268 CNS = test system: SF-268 CNS
# HS 578T breast = test system: HS 578T breast
# SN12C renal = test system: SN12C renal
# M14 melanoma = test system: M14 melanoma
# MALME-3M melanoma = test system: MALME-3M melanoma
# HOP-92 NSCLC = test system: HOP-92 NSCLC
# TK-10 renal = test system: TK-10 renal
# COLO 205 colon = test system: COLO 205 colon
# A549 NSCLC = test system: A549 NSCLC
# MDA-MB-435 = test system: MDA-MB-435
# SW-620 colon = test system: SW-620 colon
# CCRF-CEM leukemia = test system: CCRF-CEM leukemia
# HOP-62 NSCLC = test system: HOP-62 NSCLC
# MDA-MB-231 breast = test system: MDA-MB-231 breast
# RXF 393 renal = test system: RXF 393 renal
# BT-549 breast = test system: BT-549 breast
# NCI-H23 lung = test system: NCI-H23 lung
# K-562 leukemia = test system: K-562 leukemia
# OVCAR-3 ovarian = test system: OVCAR-3 ovarian
# NCI-H226 lung = test system: NCI-H226 lung
# OVCAR-8 ovarian = test system: OVCAR-8 ovarian
# HCT-116 colon = test system: HCT-116 colon
# OVCAR-4 ovarian = test system: OVCAR-4 ovarian
# MOLT-4 leukemia = test system: MOLT-4 leukemia
# UACC-257 melanoma = test system: UACC-257 melanoma
# OVCAR-5 ovarian = test system: OVCAR-5 ovarian
# EKVX NSCLC = test system: EKVX NSCLC
# HCC-2998 colon = test system: HCC-2998 colon
smiles,measurement,setting,value
CC(C)(C)[Si](C)(C)OC1[C@@H](CNC(=O)NC(=O)CCl)O[C@@H](n2cnc3c(N)ncnc32)[C@H]1O[Si](C)(C)C(C)(C)C (stereo not given in full),GI50,MDA-MB-468 breast,0.802 µM
same,TGI,MDA-MB-468 breast,1.71 µM
CCCCCCCCCCNC(=O)CI,GI50,MDA-MB-468 breast,2.14 µM
same,TGI,MDA-MB-468 breast,4.86 µM
Nc1cc(Br)c(-c2nnc(CCC(=O)c3nc4ccccc4[nH]3)o2)c(Br)c1,GI50,MDA-MB-468 breast,1.93 µM
same,TGI,MDA-MB-468 breast,6.97 µM
C=CC(=O)N1CN(C(=O)C=C)CN(C(=O)C=C)C1,GI50,MDA-MB-468 breast,1.46 µM
same,TGI,MDA-MB-468 breast,3.4 µM
ClCCN(CCCl)c1ccc(CNc2ccccc2)cc1,GI50,MDA-MB-468 breast,2.14 µM
same,TGI,MDA-MB-468 breast,23.4 µM
N=C(N)c1ccc(-c2ccc(-c3cccs3)s2)cc1,GI50,MDA-MB-468 breast,0.0564 µM
same,TGI,MDA-MB-468 breast,1.15 µM
c1ccc2c(c1)[nH]c1c2cc[n+]2cc3c(cc12)CCCC3,GI50,MDA-MB-468 breast,1.12 µM
same,TGI,MDA-MB-468 breast,2.98 µM
COc1ccc(C(=O)/C=C/c2cccc3ccccc23)cc1S(N)(=O)=O,GI50,SF-539 CNS,1.64 µM
same,TGI,SF-539 CNS,3.06 µM
same,GI50,SF-295 CNS,2.38 µM
same,TGI,SF-295 CNS,7.74 µM
same,GI50,SNB-19 CNS,3.45 µM
same,TGI,SNB-19 CNS,13.7 µM
same,GI50,DU-145 prostate,2.85 µM
same,TGI,DU-145 prostate,10.8 µM
same,GI50,SR leukemia,0.749 µM
same,TGI,SR leukemia,5.13 µM
same,GI50,HT29 colon,1.74 µM
same,TGI,HT29 colon,3.92 µM
same,GI50,UO-31 renal,1.48 µM
same,TGI,UO-31 renal,3.19 µM
same,GI50,SK-MEL-28 melanoma,1.85 µM
same,TGI,SK-MEL-28 melanoma,3.64 µM
same,GI50,NCI/ADR-RES ovarian,2.2 µM
same,TGI,NCI/ADR-RES ovarian,6.4 µM
same,GI50,CAKI-1 renal,2.42 µM
same,TGI,CAKI-1 renal,10.6 µM
same,GI50,SK-MEL-5 melanoma,2.53 µM
same,TGI,SK-MEL-5 melanoma,7.71 µM
same,GI50,ACHN renal,1.89 µM
same,TGI,ACHN renal,3.92 µM
same,GI50,HL-60(TB) leukemia,1.36 µM
same,TGI,HL-60(TB) leukemia,5.81 µM
same,GI50,T-47D breast,3.41 µM
same,TGI,T-47D breast,14.1 µM
same,GI50,IGROV1 ovarian,2.3 µM
same,TGI,IGROV1 ovarian,7.12 µM
same,GI50,U251 CNS,1.5 µM
same,TGI,U251 CNS,3.02 µM
same,GI50,LOX IMVI melanoma,1.35 µM
same,TGI,LOX IMVI melanoma,2.63 µM
same,GI50,KM12 colon,1.46 µM
same,TGI,KM12 colon,3.57 µM
same,GI50,NCI-H522 lung,1.61 µM
same,TGI,NCI-H522 lung,3.2 µM
same,GI50,NCI-H460 lung,1.79 µM
same,TGI,NCI-H460 lung,4.16 µM
same,GI50,SK-MEL-2 melanoma,4.99 µM
same,TGI,SK-MEL-2 melanoma,17.8 µM
same,GI50,MCF7 breast,2.14 µM
same,TGI,MCF7 breast,8.58 µM
same,GI50,SK-OV-3 ovarian,3.72 µM
same,TGI,SK-OV-3 ovarian,15.4 µM
same,GI50,A498 renal,13.2 µM
same,TGI,A498 renal,26.2 µM
same,GI50,RPMI-8226 leukemia,1.59 µM
same,TGI,RPMI-8226 leukemia,5.34 µM
same,GI50,PC-3 prostate,2.31 µM
same,TGI,PC-3 prostate,6.64 µM
same,GI50,786-0 renal,1.86 µM
same,TGI,786-0 renal,3.87 µM
same,GI50,HCT-15 colon,1.23 µM
same,TGI,HCT-15 colon,3.2 µM
same,GI50,UACC-62 melanoma,1.53 µM
same,TGI,UACC-62 melanoma,3 µM
same,GI50,SF-268 CNS,3.04 µM
same,TGI,SF-268 CNS,11.1 µM
same,GI50,HS 578T breast,5.21 µM
same,TGI,HS 578T breast,26.8 µM
same,GI50,SN12C renal,1.6 µM
same,TGI,SN12C renal,3.91 µM
same,GI50,M14 melanoma,2.03 µM
same,TGI,M14 melanoma,5.68 µM
same,GI50,MALME-3M melanoma,1.83 µM
same,TGI,MALME-3M melanoma,4.2 µM
same,GI50,HOP-92 NSCLC,2.14 µM
same,TGI,HOP-92 NSCLC,9.53 µM
same,GI50,TK-10 renal,2.89 µM
same,TGI,TK-10 renal,10.2 µM
same,GI50,COLO 205 colon,1.67 µM
same,TGI,COLO 205 colon,3.24 µM
same,GI50,A549 NSCLC,2.66 µM
same,TGI,A549 NSCLC,9.65 µM
same,GI50,MDA-MB-435,2.23 µM
same,TGI,MDA-MB-435,7.5 µM
same,GI50,SW-620 colon,1.62 µM
same,TGI,SW-620 colon,3.46 µM
same,GI50,CCRF-CEM leukemia,2.54 µM
same,TGI,CCRF-CEM leukemia,6.95 µM
same,GI50,HOP-62 NSCLC,2.03 µM
same,TGI,HOP-62 NSCLC,5.66 µM
same,GI50,MDA-MB-231 breast,2.38 µM
same,TGI,MDA-MB-231 breast,6.49 µM
same,GI50,RXF 393 renal,1.57 µM
same,TGI,RXF 393 renal,3.24 µM
same,GI50,BT-549 breast,1.77 µM
same,TGI,BT-549 breast,3.63 µM
same,GI50,NCI-H23 lung,2.21 µM
same,TGI,NCI-H23 lung,5.64 µM
same,GI50,K-562 leukemia,1.69 µM
same,TGI,K-562 leukemia,7.54 µM
same,GI50,OVCAR-3 ovarian,1.8 µM
same,TGI,OVCAR-3 ovarian,4.38 µM
same,GI50,NCI-H226 lung,3.1 µM
same,TGI,NCI-H226 lung,13.2 µM
same,GI50,OVCAR-8 ovarian,2.39 µM
same,TGI,OVCAR-8 ovarian,10.1 µM
same,GI50,MDA-MB-468 breast,1.53 µM
same,TGI,MDA-MB-468 breast,3.11 µM
same,GI50,HCT-116 colon,1.33 µM
same,TGI,HCT-116 colon,2.93 µM
same,GI50,OVCAR-4 ovarian,2.87 µM
same,TGI,OVCAR-4 ovarian,11.3 µM
same,GI50,MOLT-4 leukemia,2.3 µM
same,TGI,MOLT-4 leukemia,6.39 µM
same,GI50,UACC-257 melanoma,3.05 µM
same,TGI,UACC-257 melanoma,12.3 µM
same,GI50,OVCAR-5 ovarian,1.84 µM
same,TGI,OVCAR-5 ovarian,4.4 µM
same,GI50,EKVX NSCLC,3.55 µM
same,TGI,EKVX NSCLC,13.5 µM
same,GI50,HCC-2998 colon,1.75 µM
same,TGI,HCC-2998 colon,3.24 µM

# From PubChem BioAssay (NCI)
